# What was measured:
# [1] = tested on: indomethacin-induced gastric ulcer; test: Gastric ulcer index / inhibition rate in indomethacin-induced animal model; type: in vivo, rats; conditions: for Inhibition rate (%): gastric ulcer, rats, stomach excised 5 h after; for gastric ulcer inhibition rate compared to Stillen and Rebamipide (in words) / level of gastric ulcer inhibition rate despite the very small amount (in words): indomethacin-induced rats, summary of Table 13 and FIG. 7
# Excerpt: [Measurement of gastric ulcer inhibitory effect in animals]
# Experimental Example 2. Confirmation of Gastric Ulcer Inhibition Rate
# Evaluation of Gastric Ulcer Index in Indomethacin-Induced Animal Model
# For test animals, 7-week-old male rats without specific pathogens (SPF) were randomly distributed to each group by a randomized method so that the average body weight was distributed as evenly as possible after the adaptation period (7 days). The administration route was single administration of artemisia extract, and rebamipide and ethyl acetate pretreated water extract of Cinnamomum cassia, fraction (N2-1), 3,4-dihydroxybenzaldehyde, ferulic acid, 4-hydroxycinnamaldehyde, as oral administration, respectively, and the dose was calculated and administered as 10 mL/Kg based on the body weight measured on the day of administration. All animals were fasted 48 hours before administration of the test substance and control drug, and then each test substance and control drug were orally administered, and at 30 minutes after administration, indomethacin prepared in advance was orally administered at a dose of 80 mg/kg. After anesthesia with diethyl ether at 5 hours after administration of indomethacin, the stomach was excised and the gastric mucosa was photographed with a digital camera. The area of the damaged part was analyzed using ImageJ software (NIH, Bethesda, MD). The gastric ulcer index was measured according to the following equation.
# Gastric ulcer index (%)=(damaged area/total area)×100 [Equation 2]
# [2] = tested on: Raw 264.7 cells; test: Nitric oxide (NO) production inhibitory activity in LPS-stimulated Raw 264.7 cells (Griess reagent); type: cell-based; parameters: NO inhibition rate (%): concentration or dose not given beside the values; conditions: for NO: Raw 264.7 cells, LPS 100 ng/ml, sample concentration not given; for NO inhibition rate (%): vs LPS-only group
# Description: [Measurement of Anti-Inflammatory Effect in Raw 264.7 Cells] Experimental Example 1. Confirmation of Nitric Oxide Production Inhibitory Activity Nitric oxide (NO) measurement was measuring the amount of nitric oxide (NO) in the supernatant of cells as nitrite and nitrate. The safe form after oxidation from nitrite to nitrate was measured using a griess reagent (Sigma, USA). In a […], 3×10^5 cells were cultured for 24 hours. […] Then, all wells except the normal group were stimulated by adding 100 ng/ml Lipopolysaccharide (LPS). After reacting with the griess reagent for 5 minutes, the absorbance was measured at 540 nm. The calibration curve was prepared using sodium nitrite solution, and the concentration of nitrite was calculated through absorbance. The NO inhibition rate was evaluated by a method of comparing with the group treated only with LPS according to Equation 1 below. The result was shown in the following Tables 7, 8, 9, 10, 11 and 12 and FIGS. 2, 3, 4 and 5. NO inhibition rate (%)=100−[(NO production amount of sample addition group*×100)/NO production amount of sample non-addition group*] [Equation 1] *Lipopolysaccharide (LPS) treatment group
# [3] = single oral dose 1.5 mg/kg 30 min before indomethacin 80 mg/kg p.o.
# [4] = Prep-HPLC purified products from N2-1
# [5] = Prep-HPLC purified products from R2-2
smiles,measurement,setting,value
"COc1cc(/C=C/C(=O)O)ccc1O [Compound A, ferulic acid]",Inhibition rate (%),[1]; [3],61.8%
same,gastric ulcer inhibition rate compared to Stillen and Rebamipide (in words),[1],excellent gastric ulcer inhibition rate
same,level of gastric ulcer inhibition rate despite the very small amount (in words),[1],very high level of gastric ulcer inhibition rate
same,NO,[2]; [4],49.57 µM
same,NO inhibition rate (%),[2]; [4],0%
"O=C/C=C/c1ccc(O)cc1 [Compound B, 4-hydroxycinnamaldehyde]",Inhibition rate (%),[1]; single oral dose 2.0 mg/kg 30 min before indomethacin 80 mg/kg p.o.,46.1%
same,gastric ulcer inhibition rate compared to Stillen and Rebamipide (in words),[1],excellent gastric ulcer inhibition rate
same,level of gastric ulcer inhibition rate despite the very small amount (in words),[1],very high level of gastric ulcer inhibition rate
same,NO,[2]; [4],35.18 µM
same,NO inhibition rate (%),[2]; [4],29%
"O=C(O)CCc1ccccc1O [Compound C, 3-(2-hydroxyphenyl)propanoic acid]",NO,[2]; [4],48.54 µM
same,NO inhibition rate (%),[2]; [4],0%
"O=Cc1ccc(O)c(O)c1 [Compound D, 3,4-dihydroxybenzaldehyde]",Inhibition rate (%),[1]; [3],61.3%
same,gastric ulcer inhibition rate compared to Stillen and Rebamipide (in words),[1],excellent gastric ulcer inhibition rate
same,level of gastric ulcer inhibition rate despite the very small amount (in words),[1],very high level of gastric ulcer inhibition rate
same,NO,[2]; [5],44.41 µM
same,NO inhibition rate (%),[2]; [5],10%
"COc1cc(C(=O)O)cc(OC)c1O [Compound E, syringic acid]",NO,[2]; [5],47.83 µM
same,NO inhibition rate (%),[2]; [5],0%
"COc1cc(C(=O)O)ccc1O [Compound F, vanillic acid]",NO,[2]; [5],49.88 µM
same,NO inhibition rate (%),[2]; [5],0%
"O=C(NC(Cc1cc(=O)[nH]c2ccccc12)C(=O)O)c1ccc(Cl)cc1 (stereo not shown) [Rebamipide, reference compound]",Inhibition rate (%),[1]; single oral dose 30 mg/kg 30 min before indomethacin 80 mg/kg p.o.,21.5%

# Source: US20240115644A1, “COMPOSITION FOR PREVENTING, IMPROVING OR TREATING GASTRITIS OR PEPTIC ULCER COMPRISING EXTRACT OF CINNAMOMUM CASSIA, FRACTION OF SAID EXTRACT, ISOLATE OF SAID FRACTION OR COMPOUNDS ISOLATED THEREFROM” (CHONG KUN DANG PHARMACEUTICAL CORP., priority 2020, published 2024)
